Reference: US6288091A, “Antiherpes virus compounds and methods for their preparation and use” (Boehringer Ingelheim Ltd., priority 1999, dated 2001)
Read-outs that look alike come from different tables or passages of the source.

Experiments:
HCMV (strain AD169) = assay: Inhibition of HCMV replication, ELISA assay (Hs-68 cells); assay type: cell-based, Human Cytomegalovirus (HCMV); conditions: read-out: ELISA CMV EC50
Description: C) Inhibition of Human Cytomegalovirus (HCMV) Replication
The effect of compounds on the replication of HCMV has been measured by using an ELISA-based assay (ELISA) and a plaque reduction assay (PRA).
Hs-68 cells (ATCC # CRL 1635) were seeded in 96 well microtiter plates at 10,000 cells/well in 100 μL of DMEM medium (Gibco Canada Inc.) supplemented with 10% fetal bovine serum (FBS, Gibco Canada Inc.). The plates were incubated for 3 days at 37° to allow the cells to reach 80-90% confluency prior to the assay.
The medium was removed from wells by aspiration. The cells then were infected at a multiplicity of infection (MOI) of 0.01 PFU/cell with 50 μL of HCMV (strain AD169, ATCC VR-538) in DMEM medium supplemented with 5% heat inactivated FBS (assay medium). The virus was allowed to adsorb to cells for 2 h at 37°. Following viral adsorption, the medium was removed from the wells by aspiration. The cells were washed twice with 200 μL of assay medium to remove unabsorbed virus. The cells were then incubated with or without 100 μL of appropriate concentrations of test reagent in assay medium. After 8 days of incubation at 37°, the extent of viral replication was determined by an ELISA assay which detects the late structural protein p28 of HCMV.
Eight days after infection, the medium was aspirated from the wells. Non-specific binding sites were blocked by adding 200 μL of phosphate buffered saline containing 1% (w/v) bovine serum albumin (blocking buffer) to each well and incubating the plates for 30 min at room temperature. After removal of the blocking buffer by aspiration, the cells were fixed with 100 μL of cold ethanol-acetone solution (95:5) per well. The plates were placed at -20° for 30 min. The plates were washed 4 times with phosphate buffered saline containing 0.05% (v/v) polyoxyethylene sorbitan monolaurate (Tween®). Thereafter, 100 μL of mAb UL99 (Advanced Biotechnologies Inc., #13-130-100) recognizing HCMV protein p28 was added to each wells and plates were incubated for 2 h at room temperature. The plates were washed four times with 200 μL of the above-noted phosphate buffered saline/Tween-20® solution. The cells were then incubated with 100 μL of sheep anti-mouse IgGγ horseradish peroxidase conjugated for 2 h at room temperature. The plates were then washed four times with 200 μL of above-noted phosphate buffered saline/Tween-20® solution. Thereafter, 100 μL of ortho phenylenediamine dihydrochloride (OPD, Gibco Canada Inc.) solution was added to each well and the plates were agitated on a microplate shaker for 30 min in the dark. Color development was monitored at 450 nm using a microplate spectrophotometer.
The SAS program was used to calculate the % inhibition of viral replication and to generate EC50 values.
The EC50 values obtained according to this assay method for certain thiazolylphenyl derivatives of this invention are listed in the following tables under the heading ELISA CMV.

HSV-1 helicase-primase = molecular target: T1, HSV-1 helicase-primase (Human herpesvirus 1, UniProt P10189+P10236); assay: HSV-1 DNA-dependent ATPase assay (inhibition of HSV-1 helicase-primase); assay type: biochemical
T1 construct: made in house; host or cells: Sf21 insect cells triply infected with recombinant baculoviruses (UL5, UL8, UL52)
T1 sequence (P10192 whole entry): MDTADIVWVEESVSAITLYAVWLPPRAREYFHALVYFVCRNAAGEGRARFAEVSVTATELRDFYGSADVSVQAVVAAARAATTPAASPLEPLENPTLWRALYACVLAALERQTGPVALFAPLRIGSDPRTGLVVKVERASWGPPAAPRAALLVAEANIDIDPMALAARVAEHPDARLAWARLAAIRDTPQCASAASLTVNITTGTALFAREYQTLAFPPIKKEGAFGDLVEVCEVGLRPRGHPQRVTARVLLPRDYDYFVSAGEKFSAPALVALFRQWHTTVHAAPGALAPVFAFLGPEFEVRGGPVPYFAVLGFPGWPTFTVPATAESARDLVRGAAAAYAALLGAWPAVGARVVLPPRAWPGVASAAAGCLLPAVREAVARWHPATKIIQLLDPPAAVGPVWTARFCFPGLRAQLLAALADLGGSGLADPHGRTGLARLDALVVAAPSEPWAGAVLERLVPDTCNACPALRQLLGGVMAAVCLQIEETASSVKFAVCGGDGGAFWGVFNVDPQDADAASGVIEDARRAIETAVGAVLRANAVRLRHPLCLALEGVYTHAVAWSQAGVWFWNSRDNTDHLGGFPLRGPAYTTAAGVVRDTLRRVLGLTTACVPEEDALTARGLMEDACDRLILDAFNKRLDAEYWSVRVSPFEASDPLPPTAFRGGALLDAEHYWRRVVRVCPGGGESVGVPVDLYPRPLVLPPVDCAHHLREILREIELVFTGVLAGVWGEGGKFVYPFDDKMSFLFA
T1 sequence (P10236 whole entry): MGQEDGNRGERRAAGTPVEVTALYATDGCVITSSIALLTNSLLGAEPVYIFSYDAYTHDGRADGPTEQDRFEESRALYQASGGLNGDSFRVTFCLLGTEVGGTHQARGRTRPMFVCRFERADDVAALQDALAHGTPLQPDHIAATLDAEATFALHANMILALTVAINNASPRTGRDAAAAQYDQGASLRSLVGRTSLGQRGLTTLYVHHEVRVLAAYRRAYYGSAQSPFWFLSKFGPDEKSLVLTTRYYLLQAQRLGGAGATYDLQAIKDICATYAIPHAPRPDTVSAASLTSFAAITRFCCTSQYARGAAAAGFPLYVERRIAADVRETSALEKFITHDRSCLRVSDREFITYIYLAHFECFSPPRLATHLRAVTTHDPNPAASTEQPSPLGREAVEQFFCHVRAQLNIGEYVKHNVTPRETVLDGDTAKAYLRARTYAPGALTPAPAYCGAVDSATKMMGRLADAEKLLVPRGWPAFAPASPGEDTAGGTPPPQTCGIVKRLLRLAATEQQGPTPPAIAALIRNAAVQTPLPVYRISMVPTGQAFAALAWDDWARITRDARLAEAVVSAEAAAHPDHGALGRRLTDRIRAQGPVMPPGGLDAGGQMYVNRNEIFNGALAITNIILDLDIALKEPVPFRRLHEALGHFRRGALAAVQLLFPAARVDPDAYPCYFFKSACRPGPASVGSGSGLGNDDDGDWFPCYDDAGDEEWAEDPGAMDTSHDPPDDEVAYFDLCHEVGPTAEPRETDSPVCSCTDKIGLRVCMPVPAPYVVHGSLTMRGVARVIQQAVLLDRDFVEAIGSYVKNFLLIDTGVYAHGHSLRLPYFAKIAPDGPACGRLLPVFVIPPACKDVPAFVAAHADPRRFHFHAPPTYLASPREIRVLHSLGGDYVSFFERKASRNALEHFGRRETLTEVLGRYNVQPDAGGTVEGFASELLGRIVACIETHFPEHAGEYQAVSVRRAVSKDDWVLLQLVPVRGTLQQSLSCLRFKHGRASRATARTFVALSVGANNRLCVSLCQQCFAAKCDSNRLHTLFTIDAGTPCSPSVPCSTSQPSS
T1 sequence (P10189 whole entry): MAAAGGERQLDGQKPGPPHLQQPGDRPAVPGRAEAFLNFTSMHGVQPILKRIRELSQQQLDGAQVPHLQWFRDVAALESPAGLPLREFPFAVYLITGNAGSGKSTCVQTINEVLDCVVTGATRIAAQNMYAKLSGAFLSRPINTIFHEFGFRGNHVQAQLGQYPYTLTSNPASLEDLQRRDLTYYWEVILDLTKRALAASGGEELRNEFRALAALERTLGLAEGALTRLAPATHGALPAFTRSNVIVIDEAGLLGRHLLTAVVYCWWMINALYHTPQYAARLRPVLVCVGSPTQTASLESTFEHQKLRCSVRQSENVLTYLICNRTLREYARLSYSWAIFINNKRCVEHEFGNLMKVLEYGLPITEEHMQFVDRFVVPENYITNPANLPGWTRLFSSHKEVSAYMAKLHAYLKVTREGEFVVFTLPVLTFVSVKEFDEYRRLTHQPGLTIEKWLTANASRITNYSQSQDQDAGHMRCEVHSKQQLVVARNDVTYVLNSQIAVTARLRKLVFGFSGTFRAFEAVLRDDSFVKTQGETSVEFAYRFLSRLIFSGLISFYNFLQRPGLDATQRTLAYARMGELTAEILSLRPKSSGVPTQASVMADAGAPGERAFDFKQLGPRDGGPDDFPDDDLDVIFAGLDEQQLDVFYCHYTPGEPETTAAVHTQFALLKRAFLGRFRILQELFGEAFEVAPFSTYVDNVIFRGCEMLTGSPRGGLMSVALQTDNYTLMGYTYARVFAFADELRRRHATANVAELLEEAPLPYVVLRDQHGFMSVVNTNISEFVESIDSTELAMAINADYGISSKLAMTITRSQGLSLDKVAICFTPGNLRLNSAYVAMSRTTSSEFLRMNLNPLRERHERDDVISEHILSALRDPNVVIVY
In short: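 ATP hydrolysis was measured as inorganic phosphate (malachite green/molybdate, 650 nm) after 20 min at 34°. Reaction: 3 μg/mL purified Sf21-expressed UL5/UL8/UL52 helicase-primase, 25 μM single-stranded M13 DNA hybridized to 68-mer, 4 mM ATP, pH 7.5 HEPES buffer, 3.3% DMSO. Net absorbance change with and without inhibitor gave DNA-dependent ATPase activity.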

HSV-1 strain F or KOS = assay: Inhibition of herpes simplex virus (HSV-1) replication in cell culture (BHK-21 cells, glycoprotein C ELISA); assay type: cell-based
In short: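 Replication readout: ELISA for HSV-1 late glycoprotein C (mAb C11, peroxidase-OPD, 450 nm) on glutaraldehyde-fixed cells. Monolayers (~50,000 cells/well) were infected with strain F or KOS (MOI 0.05 PFU/cell), then incubated 24 h at 37° with compound in 2% FBS α-MEM. EC50 derived from % inhibition.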

[1] = Human betaherpesvirus 5, AD169, Hs68, Group 1 Table 3 entries
[2] = Human alphaherpesvirus 1, BHK-21, Group 1 Table 3 entries
[3] = Human betaherpesvirus 5, AD169, Hs68, Group 1 Table 1 entries
[4] = Human alphaherpesvirus 1, BHK-21, Group 1 Table 1 entries
[5] = Human betaherpesvirus 5, AD169, Hs68, Group 1 Table 5 entries
[6] = Human alphaherpesvirus 1, BHK-21, Group 1 Table 5 entries

In the case of CN(C(=O)CN(Cc1ccccc1)C(=O)c1ccncc1)c1ccc(-c2csc(N)n2)cc1 [Example 2], the EC50 (HCMV (strain AD169); [1]) is reported as 78 µM, the IC50 (HSV-1 helicase-primase; Group 1 Table 3 entries) is reported as 1.5 µM and the EC50 (HSV-1 strain F or KOS; [2]) is reported as 0.34 µM.

Nc1nc(-c2ccc(NC(=O)CNCCc3ccccc3)cc2)cs1 [Example 2] was tested, and the EC50 (HCMV (strain AD169); [3]) was 3.1 µM, the IC50 (HSV-1 helicase-primase; Group 1 Table 1 entries) was 4.7 µM and the EC50 (HSV-1 strain F or KOS; [4]) was 6 µM.

With CC(C)(C)OC(=O)N1CCC[C@H]1C(=O)Nc1ccc(-c2csc(N)n2)cc1 [Example 4] the EC50 (HCMV (strain AD169); Human betaherpesvirus 5, AD169, Hs68, Group 1 Table 6 entries) was greater than 64 µM, the IC50 (HSV-1 helicase-primase; Group 1 Table 6 entries) was 0.46 µM and the EC50 (HSV-1 strain F or KOS; Human alphaherpesvirus 1, BHK-21, Group 1 Table 6 entries) was 0.21 µM.

Cc1nc(-c2ccc(NC(=O)CN(Cc3ccccc3)C(=O)C3CCCCC3)cc2)cs1 [Example 4] showed an EC50 (HCMV (strain AD169); [1]) of 12 µM, an IC50 (HSV-1 helicase-primase; Group 1 Table 3 entries) of 0.19 µM and an EC50 (HSV-1 strain F or KOS; [2]) of 0.12 µM.

CN(C(=O)C1CCCCC1)[C@@H](Cc1ccccc1)C(=O)Nc1ccc(-c2csc(N)n2)cc1 [Example 5] gave an EC50 (HCMV (strain AD169); [5]) of 9.5 µM, an IC50 (HSV-1 helicase-primase; Group 1 Table 5 entries) of 0.22 µM and an EC50 (HSV-1 strain F or KOS; [6]) of 0.15 µM.

Nc1nc(-c2ccc(NC(=O)[C@@H](Cc3ccccc3)NCc3ccccc3)cc2)cs1 [Example 7] was tested, and the EC50 (HCMV (strain AD169); [5]) was less than 9 µM, the IC50 (HSV-1 helicase-primase; Group 1 Table 5 entries) was 6.6 µM and the EC50 (HSV-1 strain F or KOS; [6]) was 2.1 µM.

CNc1nc(-c2ccc(NC(=O)CN(Cc3ccccc3)C(=O)C3CCCCC3)cc2)cs1 [Example 8] gave an EC50 (HCMV (strain AD169); [1]) of 9 µM, an IC50 (HSV-1 helicase-primase; Group 1 Table 3 entries) of 0.05 µM and an EC50 (HSV-1 strain F or KOS; [2]) of 0.002 µM.

Nc1nc(-c2ccc(NC(=O)CNCC3CCCCC3)cc2)cs1 [Example 8] showed an EC50 (HCMV (strain AD169); [3]) of 3.6 µM, an IC50 (HSV-1 helicase-primase; Group 1 Table 1 entries) of 2.9 µM and an EC50 (HSV-1 strain F or KOS; [4]) of 8 µM.

With CNc1nc(-c2ccc(NC(=O)CN(CC3CCCCC3)C(=O)c3cccnc3)cc2)cs1 [Example 9] the EC50 (HCMV (strain AD169); [1]) was 5 µM, the IC50 (HSV-1 helicase-primase; Group 1 Table 3 entries) was 10 µM and the EC50 (HSV-1 strain F or KOS; [2]) was 1.3 µM.

With CNc1nc(-c2ccc(NC(=O)CN(Cc3ccccc3)C(=O)OC(C)(C)C)cc2)cs1 [Example 10] the EC50 (HCMV (strain AD169); [1]) was 1.1 µM, the IC50 (HSV-1 helicase-primase; Group 1 Table 3 entries) was 0.31 µM and the EC50 (HSV-1 strain F or KOS; [2]) was 0.008 µM.

Work on CN(C)c1nc(-c2ccc(NC(=O)CNCc3ccccc3)cc2)cs1 [Example 12] yielded an EC50 (HCMV (strain AD169); [1]) greater than 79 µM, an IC50 (HSV-1 helicase-primase; Group 1 Table 3 entries) greater than 50 µM and an EC50 (HSV-1 strain F or KOS; [2]) of 21 µM.

C[C@H](NCc1ccccc1)C(=O)Nc1ccc(-c2csc(N)n2)cc1 [Example 12] gave an EC50 (HCMV (strain AD169); [5]) of 4.1 µM, an IC50 (HSV-1 helicase-primase; Group 1 Table 5 entries) of 1.3 µM and an EC50 (HSV-1 strain F or KOS; [6]) of 0.82 µM.

Compound CN(C)c1nc(-c2ccc(NC(=O)CNCC3CCCCC3)cc2)cs1 [Example 13] has an EC50 (HCMV (strain AD169); [1]) of 36 µM, an IC50 (HSV-1 helicase-primase; Group 1 Table 3 entries) greater than 50 µM and an EC50 (HSV-1 strain F or KOS; [2]) greater than 4 µM.

For C[C@@H](NCc1ccccc1)C(=O)Nc1ccc(-c2csc(N)n2)cc1 [Example 13], the EC50 (HCMV (strain AD169); [5]) was 14 µM, the IC50 (HSV-1 helicase-primase; Group 1 Table 5 entries) was 2 µM and the EC50 (HSV-1 strain F or KOS; [6]) was 2 µM.

Nc1nc(-c2ccc(NC(=O)CNCc3cccs3)cc2)cs1 [Example 13] was tested, and the EC50 (HCMV (strain AD169); [3]) was 8.3 µM, the IC50 (HSV-1 helicase-primase; Group 1 Table 1 entries) was 3.8 µM and the EC50 (HSV-1 strain F or KOS; [4]) was 3.7 µM.

CN(C)c1nc(-c2ccc(NC(=O)CN(Cc3ccccc3)C(=O)c3ccncc3)cc2)cs1 [Example 14] gave an EC50 (HCMV (strain AD169); [1]) of 20 µM, an IC50 (HSV-1 helicase-primase; Group 1 Table 3 entries) greater than 50 µM and an EC50 (HSV-1 strain F or KOS; [2]) of 0.5 µM.

With C[C@@H](C(=O)Nc1ccc(-c2csc(N)n2)cc1)N(Cc1ccccc1)C(=O)C1CCCCC1 [Example 14] the EC50 (HCMV (strain AD169); [5]) was 10 µM, the IC50 (HSV-1 helicase-primase; Group 1 Table 5 entries) was 0.11 µM and the EC50 (HSV-1 strain F or KOS; [6]) was 0.009 µM.

Work on Nc1nc(-c2ccc(NC(=O)CNCCN3CCOCC3)cc2)cs1 [Example 14] yielded an EC50 (HCMV (strain AD169); [3]) of 67 µM, an IC50 (HSV-1 helicase-primase; Group 1 Table 1 entries) of 7.7 µM and an EC50 (HSV-1 strain F or KOS; [4]) of 3.2 µM.

With C[C@H](C(=O)Nc1ccc(-c2csc(N)n2)cc1)N(Cc1ccccc1)C(=O)C1CCCCC1 [Example 15] the EC50 (HCMV (strain AD169); [5]) was 3.2 µM, the IC50 (HSV-1 helicase-primase; Group 1 Table 5 entries) was 0.041 µM and the EC50 (HSV-1 strain F or KOS; [6]) was 0.006 µM.

CN(C)c1nc(-c2ccc(NC(=O)CN(Cc3ccccc3)C(=O)OC(C)(C)C)cc2)cs1 [Example 16] gave an EC50 (HCMV (strain AD169); [1]) of 4.8 µM, an IC50 (HSV-1 helicase-primase; Group 1 Table 3 entries) greater than 50 µM and an EC50 (HSV-1 strain F or KOS; [2]) of 0.009 µM.
